The target in one assay is AuroraB (h) (Homo sapiens, UniProt Q96GD4). Briefly: Aurora-B human kinase assay (SPA). Format: biochemical. Particulars: read-out: AuroraB pIC50 (converted). An outline of the steps: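 33P-phosphorylated biotin-substrate captured on streptavidin PVT SPA beads after EDTA-containing stop and imaged on Leadseeker. Reaction: 60 min at room temperature, Hepes pH 7.5 with Mg2+/Mn2+. Conditions: 0.5 μM ATP plus 2.2 nM [γ-33P]ATP, 3 μM substrate, 0.5 μg/ml human AuroraB.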

In a further assay the test system is PC-3. Briefly: Cellular proliferation assay (Alamar blue), PC-3. Format: cell-based. Conditions: Homo sapiens, PC-3, 72 h, PC-3 cells, 72 hours with compound, 10% FCS, read-out: pIC50 PC-3 (converted). An outline of the steps:
(§1)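 Proliferation was assessed over 72 h of compound treatment, following 24 h of seeding without compound, under 10% FCS, 37° C. and 5% CO2. Fluorescent resazurin product was measured and compared with control cells.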
(The colour change of resazurin is a common sign of viable cells or microbes.)

Another assay concerns U87MG. Briefly: Cellular proliferation assay (Alamar blue), U87MG. Format: cell-based. Particulars: Homo sapiens, U-87 MG, 72 h, U87MG cells, 72 hours with compound, 10% FCS, read-out: pIC50 U87MG (converted). An outline of the steps:
as §1

For another assay, the target named is GSK3β (h) (Homo sapiens, UniProt P49841). Briefly: GSK-3β human kinase assay (SPA). It counts as biochemical. Particulars: read-out: GSK3B pIC50 (converted). An outline of the steps:
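Radiometric SPA read-out: after EDTA stop, biotinylated 33P-labelled peptide bound streptavidin PVT beads and was imaged on Leadseeker. Reaction: 60 min, room temperature, GSK3β (h) at 1 μg/ml, 1 μM substrate peptide, 1 μM ATP with 2 nM [γ-33P]ATP, Tris pH 7.4/MgCl2/DTT buffer.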

In a further assay the test system is HCT-116. Briefly: Cellular proliferation assay (Alamar blue), HCT-116. Format: cell-based. Conditions: Homo sapiens, HCT-116, 72 h, HCT-116 cells, 72 hours with compound, 10% FCS, read-out: pIC50 HCT-116 (converted). An outline of the steps:
as §1

A further assay relates to H1299. Briefly: Cellular proliferation assay (Alamar blue), H1299. It counts as cell-based. Particulars: Homo sapiens, NCI-H1299, 72 h, H1299 cells, 72 hours with compound, 10% FCS, read-out: pIC50 H1299 (converted). An outline of the steps: as §1
Another assay addresses CDK1/CyclinB (h) (Homo sapiens, UniProt P06493). Briefly: CDK1/CyclinB human kinase assay (FRET). Format: biochemical. Conditions: read-out: CDK1 pIC50 (converted). An outline of the steps:
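Kinase activity was read as the 460/538 nm emission ratio after protease cleavage of unphosphorylated peptide (60 min development). The reaction ran 60 min at room temperature with 10 μM ATP, 2 μM Ser/Thr peptide 12 and 0.2 μg/ml enzyme in Hepes pH 7.5 buffer with MgCl2, EGTA, Brij-35.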

The next assay deals with A2780. Briefly: Cellular proliferation assay (Alamar blue), A2780. Format: cell-based. Particulars: Homo sapiens, A2780, 72 h, A2780 cells, 72 hours with compound, 10% FCS, read-out: pIC50 A2780 (converted). An outline of the steps:
as §1

The test system of a further assay is MDA/MB231. Briefly: Cellular proliferation assay (Alamar blue), MDA/MB231. Format: cell-based. Particulars: Homo sapiens, MDA-MB-231, 72 h, MDA/MB231 cells, 72 hours with compound, 10% FCS, read-out: pIC50 MDA/MB231 (converted). An outline of the steps: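 Cells were grown in 10% FCS at 37° C. with 5% CO2, plated 24 h without compound, then exposed to compound for 72 h. Viability was measured by Alamar blue (resazurin 9 μg/ml) fluorescence at 544 nm/590 nm after 4 h (H460) or 24 h (MDA-MB-231) dye incubation, relative to control cells.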

The target of another assay is PLK4 (h) (Homo sapiens, UniProt O00444). Briefly: PLK-4 human kinase assay (SPA). It counts as biochemical. Conditions: read-out: PLK4 pIC50 (converted). An outline of the steps: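 Radiometric readout: 33P-labelled peptide captured on streptavidin SPA beads after EDTA stop, imaged by Leadseeker. Reaction ran 60 min at room temperature in Hepes pH 8.0 buffer. It contained 1 μM ATP with 2 nM [γ-33P]ATP, 10 μM biotinylated peptide and PLK4 (h) at 19 μg/ml.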
Chain of PLK4 (h) (O00444 whole entry): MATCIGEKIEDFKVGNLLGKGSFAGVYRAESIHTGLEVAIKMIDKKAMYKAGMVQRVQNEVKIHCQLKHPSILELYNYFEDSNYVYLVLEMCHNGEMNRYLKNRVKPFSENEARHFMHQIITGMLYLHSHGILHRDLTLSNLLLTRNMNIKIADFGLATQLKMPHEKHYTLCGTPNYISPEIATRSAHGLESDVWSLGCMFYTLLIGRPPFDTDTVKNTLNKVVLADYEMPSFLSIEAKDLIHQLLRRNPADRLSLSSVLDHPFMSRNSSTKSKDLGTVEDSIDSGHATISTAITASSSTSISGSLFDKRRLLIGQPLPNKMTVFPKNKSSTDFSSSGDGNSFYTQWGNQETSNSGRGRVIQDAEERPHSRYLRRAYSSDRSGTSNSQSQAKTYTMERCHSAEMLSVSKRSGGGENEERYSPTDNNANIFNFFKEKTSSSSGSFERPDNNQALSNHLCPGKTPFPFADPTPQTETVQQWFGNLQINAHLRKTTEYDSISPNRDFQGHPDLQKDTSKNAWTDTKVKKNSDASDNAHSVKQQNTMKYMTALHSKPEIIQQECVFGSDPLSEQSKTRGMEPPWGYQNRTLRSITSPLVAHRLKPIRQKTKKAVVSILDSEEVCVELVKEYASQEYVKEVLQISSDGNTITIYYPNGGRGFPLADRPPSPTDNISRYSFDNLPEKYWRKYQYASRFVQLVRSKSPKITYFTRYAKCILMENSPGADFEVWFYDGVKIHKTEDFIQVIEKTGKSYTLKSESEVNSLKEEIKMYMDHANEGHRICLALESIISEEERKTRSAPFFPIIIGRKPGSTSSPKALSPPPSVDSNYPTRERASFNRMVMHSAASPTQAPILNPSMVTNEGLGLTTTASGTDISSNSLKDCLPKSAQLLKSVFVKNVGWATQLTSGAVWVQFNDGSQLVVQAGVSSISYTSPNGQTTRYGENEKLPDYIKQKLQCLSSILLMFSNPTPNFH

Chain of GSK3β (h) (P49841 whole entry): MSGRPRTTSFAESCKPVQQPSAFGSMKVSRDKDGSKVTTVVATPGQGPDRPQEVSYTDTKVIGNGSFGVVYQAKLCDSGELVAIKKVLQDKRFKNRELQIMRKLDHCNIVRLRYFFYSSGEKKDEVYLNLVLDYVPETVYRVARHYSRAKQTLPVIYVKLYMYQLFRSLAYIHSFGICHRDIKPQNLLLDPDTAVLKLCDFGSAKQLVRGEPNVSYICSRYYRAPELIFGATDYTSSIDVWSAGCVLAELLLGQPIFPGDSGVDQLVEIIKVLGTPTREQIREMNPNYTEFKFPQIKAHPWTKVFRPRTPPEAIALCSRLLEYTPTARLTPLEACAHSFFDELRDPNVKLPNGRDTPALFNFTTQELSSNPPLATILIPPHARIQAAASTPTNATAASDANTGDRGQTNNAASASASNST
Chain of CDK1/CyclinB (h) (P06493 whole entry): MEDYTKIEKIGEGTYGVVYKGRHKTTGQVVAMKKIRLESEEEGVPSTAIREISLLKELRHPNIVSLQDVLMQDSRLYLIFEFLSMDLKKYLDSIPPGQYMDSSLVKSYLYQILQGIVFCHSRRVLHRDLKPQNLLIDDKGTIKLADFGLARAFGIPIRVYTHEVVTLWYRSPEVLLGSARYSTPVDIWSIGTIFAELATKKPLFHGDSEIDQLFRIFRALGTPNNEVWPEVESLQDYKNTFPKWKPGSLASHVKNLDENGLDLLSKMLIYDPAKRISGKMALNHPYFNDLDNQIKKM
Chain of CDK1/CyclinB (h) (P14635 whole entry partner): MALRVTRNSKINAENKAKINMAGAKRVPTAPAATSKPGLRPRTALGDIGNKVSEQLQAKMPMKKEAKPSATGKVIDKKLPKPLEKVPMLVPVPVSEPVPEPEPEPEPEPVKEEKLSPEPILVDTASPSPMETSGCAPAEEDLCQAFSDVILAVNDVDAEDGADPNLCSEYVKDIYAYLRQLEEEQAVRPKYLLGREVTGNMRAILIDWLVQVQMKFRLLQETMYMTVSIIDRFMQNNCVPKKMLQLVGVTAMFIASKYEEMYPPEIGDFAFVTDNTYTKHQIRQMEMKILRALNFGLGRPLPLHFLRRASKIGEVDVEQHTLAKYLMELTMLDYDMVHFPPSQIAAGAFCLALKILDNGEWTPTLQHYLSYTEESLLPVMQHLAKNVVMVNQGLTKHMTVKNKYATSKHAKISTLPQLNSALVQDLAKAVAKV
Chain of AuroraB (h) (Q96GD4 whole entry): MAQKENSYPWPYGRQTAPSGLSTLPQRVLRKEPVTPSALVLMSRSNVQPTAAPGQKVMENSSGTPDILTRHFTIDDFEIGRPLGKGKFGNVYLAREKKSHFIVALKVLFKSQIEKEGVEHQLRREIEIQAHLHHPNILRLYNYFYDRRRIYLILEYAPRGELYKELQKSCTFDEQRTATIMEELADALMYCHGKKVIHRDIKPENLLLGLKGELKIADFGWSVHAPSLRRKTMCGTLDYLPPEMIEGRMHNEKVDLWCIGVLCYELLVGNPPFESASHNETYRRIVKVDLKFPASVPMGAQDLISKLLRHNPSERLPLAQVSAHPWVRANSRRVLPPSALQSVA

Turning to `CN1CCNC(=O)CCCCCCOc2cccc(c2)N/C=C2\C(=O)Nc3ncnc1c32` [Compound 36], the IC50 on AuroraB (h) is greater than 10 µM; with PC-3, greater than 10 µM; in the assay with U87MG, greater than 10 µM; at GSK3β (h), 2 µM; in the assay on HCT-116, greater than 10 µM; in the assay on H1299 it was greater than 10 µM. In addition, the IC50 is greater than 10 µM at CDK1/CyclinB (h), greater than 10 µM in the assay on A2780, greater than 10 µM in the assay on MDA/MB231 and 2.24 µM at PLK4 (h).
In the case of `COc1ccc2cc1OCCCCCC(=O)N(C)CCNc1ncnc3c1/C(=C/N2)C(=O)N3` [Compound 37], the IC50 at AuroraB (h) was 0.214 µM; in the assay on PC-3, 9.55 µM; in the assay on U87MG, 1.82 µM; on GSK3β (h) it was 0.0851 µM; in the assay on HCT-116 it was 6.03 µM; in the assay with H1299 it was 3.16 µM. The IC50 on CDK1/CyclinB (h) was 2.14 µM; in the assay on A2780, 7.59 µM; in the assay with MDA/MB231 it was greater than 10 µM; at PLK4 (h), 0.55 µM.
As to `COc1ccc2cc1OCCCC(=O)NCCN(C)c1ncnc3c1/C(=C/N2)C(=O)N3` [Compound 38], the IC50 at AuroraB (h) is greater than 10 µM; in the assay with PC-3, greater than 10 µM; in the assay with U87MG, greater than 10 µM; at GSK3β (h), 3.63 µM; with HCT-116, greater than 10 µM; with H1299, greater than 10 µM. Further, the IC50 was greater than 10 µM on CDK1/CyclinB (h), greater than 10 µM in the assay with A2780, greater than 10 µM with MDA/MB231 and 2.63 µM on PLK4 (h).
On to `CN1CCNc2ncnc3c2/C(=C/Nc2cccc(c2)OCCCCCC1=O)C(=O)N3` [Compound 39], for which the IC50 was 1.26 µM at AuroraB (h); greater than 10 µM in the assay with PC-3; 7.94 µM in the assay on U87MG; 0.282 µM on GSK3β (h); 3.8 µM in the assay with HCT-116; greater than 10 µM in the assay with H1299. For the same compound, the IC50 on CDK1/CyclinB (h) is 5.62 µM; in the assay with A2780, greater than 10 µM; in the assay with MDA/MB231, greater than 10 µM; at PLK4 (h), 3.72 µM.
For the compound `CN1CCNC(=O)CCCOc2cccc(c2)N/C=C2\C(=O)Nc3ncnc1c32` [Compound 40], the IC50 at AuroraB (h) is 8.32 µM; in the assay on PC-3, greater than 10 µM; in the assay with U87MG, greater than 10 µM; on GSK3β (h), 1.51 µM; with HCT-116, greater than 10 µM; in the assay on H1299, greater than 10 µM. Besides, the IC50 is 7.08 µM on CDK1/CyclinB (h), greater than 10 µM in the assay on A2780, greater than 10 µM in the assay with MDA/MB231 and 4.9 µM at PLK4 (h).
As to `CN1CCNC(=O)CCCCCOc2cccc(c2)N/C=C2\C(=O)Nc3ncnc1c32` [Compound 41], the IC50 was greater than 10 µM on AuroraB (h); greater than 10 µM with PC-3; greater than 10 µM with U87MG; 2.45 µM at GSK3β (h); greater than 10 µM in the assay on HCT-116; greater than 10 µM with H1299. Also, the IC50 on CDK1/CyclinB (h) is 5.01 µM; in the assay with A2780 it was greater than 10 µM; with MDA/MB231, greater than 10 µM; at PLK4 (h), 1.78 µM.
Turning to `CN1CCNc2ncnc3c2/C(=C/Nc2cccc(c2)OCCCCC1=O)C(=O)N3` [Compound 42], the IC50 is 1.38 µM at AuroraB (h); greater than 10 µM with PC-3; greater than 10 µM in the assay with U87MG; 0.295 µM on GSK3β (h); 2.19 µM with HCT-116; greater than 10 µM in the assay on H1299. Further, the IC50 was 5.89 µM on CDK1/CyclinB (h), greater than 10 µM in the assay with A2780, greater than 10 µM in the assay on MDA/MB231 and 1.7 µM at PLK4 (h).
On to `COc1ccc2cc1OCCCCC(=O)N(C)CCNc1ncnc3c1/C(=C/N2)C(=O)N3` [Compound 45], for which the IC50 on AuroraB (h) is 0.24 µM; in the assay with PC-3, 9.12 µM; in the assay on U87MG, 1.66 µM; on GSK3β (h) it was 0.12 µM; in the assay on HCT-116, 1.91 µM; in the assay on H1299, 2.82 µM. Also, the IC50 at CDK1/CyclinB (h) is 2.19 µM; in the assay with A2780, greater than 10 µM; in the assay on MDA/MB231, greater than 10 µM; at PLK4 (h), 0.537 µM.
For `COc1ccc2cc1OCCCCCCC(=O)NCCN(C)c1ncnc3c1/C(=C/N2)C(=O)N3` [Compound 47], the IC50 on AuroraB (h) is 8.71 µM; in the assay on PC-3 it was greater than 10 µM; in the assay on U87MG, greater than 10 µM; at GSK3β (h) it was 4.79 µM; in the assay with HCT-116, greater than 10 µM; in the assay with H1299, greater than 10 µM. The IC50 was greater than 10 µM at CDK1/CyclinB (h), greater than 10 µM with A2780, greater than 10 µM in the assay with MDA/MB231 and 2.29 µM on PLK4 (h).
On to `COc1ccc2cc1CN(C)CCCCCC(=O)NCCN(C)c1ncnc3c1/C(=C/N2)C(=O)N3` [Compound 48], for which the IC50 at AuroraB (h), with PC-3, in the assay on U87MG, on GSK3β (h), in the assay on HCT-116 and in the assay with H1299 was greater than 10 µM in each case. Besides, the IC50 on CDK1/CyclinB (h), with A2780, in the assay on MDA/MB231 and on PLK4 (h) was greater than 10 µM each time.
On to `CN1CCNC(=O)CCCCCCOc2cc(ccc2Cl)N/C=C2\C(=O)Nc3ncnc1c32` [Compound 49], for which the IC50 on AuroraB (h), in the assay on PC-3, in the assay with U87MG, at GSK3β (h), in the assay with HCT-116 and in the assay on H1299 was greater than 10 µM each time. In addition, the IC50 on CDK1/CyclinB (h) is greater than 10 µM; with A2780, greater than 10 µM; in the assay on MDA/MB231 it was greater than 10 µM; on PLK4 (h), 7.41 µM.
Take `COc1ccc2cc1CN(C)CCCCCCC(=O)NCCN(C)c1ncnc3c1/C(=C/N2)C(=O)N3` [Compound 50]: the IC50 on AuroraB (h), in the assay with PC-3, in the assay on U87MG, on GSK3β (h), in the assay with HCT-116 and with H1299 was greater than 10 µM each time. In addition, the IC50 at CDK1/CyclinB (h), with A2780, in the assay with MDA/MB231 and at PLK4 (h) was greater than 10 µM in each case.
Consider `COc1ccc2cc1CN(C)CCCCC(=O)NCCN(C)c1ncnc3c1/C(=C/N2)C(=O)N3` [Compound 51], for which the IC50 at AuroraB (h), in the assay with PC-3, with U87MG, on GSK3β (h), in the assay on HCT-116 and in the assay with H1299 was greater than 10 µM in each case. Further, the IC50 at CDK1/CyclinB (h), with A2780, in the assay with MDA/MB231 and at PLK4 (h) was greater than 10 µM each time.
For `CN1CCNC(=O)CCCCCOc2cc(ccc2Cl)N/C=C2\C(=O)Nc3ncnc1c32` [Compound 52], the IC50 is 6.61 µM on AuroraB (h); greater than 10 µM in the assay on PC-3; 7.24 µM in the assay on U87MG; 4.47 µM on GSK3β (h); 1.95 µM in the assay on HCT-116; greater than 10 µM in the assay with H1299. Moreover, the IC50 was greater than 10 µM on CDK1/CyclinB (h), greater than 10 µM in the assay on A2780, greater than 10 µM with MDA/MB231 and 9.55 µM on PLK4 (h).
On to `CN1CCCN(C)c2ncnc3c2/C(=C/Nc2cccc(c2)OCCCCCCC1=O)C(=O)N3` [Compound 53], for which the IC50 at AuroraB (h) is greater than 10 µM; in the assay on PC-3, greater than 10 µM; in the assay with U87MG, greater than 10 µM; on GSK3β (h) it was 0.794 µM; in the assay on HCT-116 it was greater than 10 µM; with H1299, greater than 10 µM. Also, the IC50 on CDK1/CyclinB (h) is greater than 10 µM; with A2780 it was greater than 10 µM; in the assay on MDA/MB231 it was greater than 10 µM; on PLK4 (h) it was 2.34 µM.

For the origin of these results see patent US8338422B2, “Indolin-2-ones and aza-indolin-2-ones” (Janssen Pharmaceutica NV, priority 2007, dated 2012).
